We go through 3 compounds from patent US7772269B2, “Pyrazole analogs” (Pfizer Inc., priority 2006, dated 2010).

The nature of series [1]: Emesis evaluation in beagle dogs. The series is classed as in vivo. Conditions: for emesis / emesis (number of dogs): dogs. The method, then:
Experiments were undertaken to differentiate local gastrointestinal emetic stimuli during dissolution and absorption of an oral compound from emetic stimuli produced during systemic exposure through the bloodstream. […] These findings were observed after 8-12 kg purpose-bred beagle dogs were administered 4-(3-{[4-(1-methyl-1H-pyrazol-5-yl)phenyl]thio}phenyl)tetrahydro-2H-pyran-4-carboxamide by IV infusion, using a loading dose followed by a slow infusion to attain a peak blood level over 30 minutes to 1 hour in duration. More specifically, compounds were diluted in phosphate buffered saline to a concentration where 10 ml/kg total volume was administered through an intravenous catheter using an infusion pump, with approximately 90% of the total dose being delivered in the first 5 minutes, and the remaining dose administered over the next 25 minutes. Similar delivery methods to produce an exposure that approximates the systemic pharmacokinetic profile seen with oral delivery are anticipated to give similar results. More rapid methods of administration and the resultant high plasma concentrations are not anticipated to discriminate useful compounds from non-useful compounds. For example, IV bolus administration may produce a higher peak plasma concentration and systemic gastrointestinal effects than those achieved for compounds that following absorption from the GI tract, would have acceptable peak plasma concentrations and therapeutic efficacy. […] Periodic serum and plasma samples were obtained during the first 6 hours to document systemic inhibition of the 5-lipoxygenase enzyme as well as exposure levels of the compound. […] In one study, 4-(3-(4-(2-methyl-1H-imidazol-1-yl)phenylthio)phenyl)-tetrahydro-2H-pyran-4-carboxamide was administered intravenously at 10 mg/kg, 30 mg/kg and 60 mg/kg as well as 30 mg per kg by the oral route. […] In another experiment, 4-(3-{[4-(1-methyl-1H-pyrazol-5-yl)phenyl]thio}phenyl)tetrahydro-2H-pyran-4-carboxamide was administered orally at doses of 100 mg per kg, 300 mg per kg, and 600 mg per kg, with emesis only observed in 2 dogs at 100 mg per kg and one dog at 300 mg per kg.

The conditions of series [2]: clinical trial; cited from earlier work.
The target in series [3] is T1, 5-LO (Homo sapiens, UniProt P09917).
T1 sequence (P09917 1-674): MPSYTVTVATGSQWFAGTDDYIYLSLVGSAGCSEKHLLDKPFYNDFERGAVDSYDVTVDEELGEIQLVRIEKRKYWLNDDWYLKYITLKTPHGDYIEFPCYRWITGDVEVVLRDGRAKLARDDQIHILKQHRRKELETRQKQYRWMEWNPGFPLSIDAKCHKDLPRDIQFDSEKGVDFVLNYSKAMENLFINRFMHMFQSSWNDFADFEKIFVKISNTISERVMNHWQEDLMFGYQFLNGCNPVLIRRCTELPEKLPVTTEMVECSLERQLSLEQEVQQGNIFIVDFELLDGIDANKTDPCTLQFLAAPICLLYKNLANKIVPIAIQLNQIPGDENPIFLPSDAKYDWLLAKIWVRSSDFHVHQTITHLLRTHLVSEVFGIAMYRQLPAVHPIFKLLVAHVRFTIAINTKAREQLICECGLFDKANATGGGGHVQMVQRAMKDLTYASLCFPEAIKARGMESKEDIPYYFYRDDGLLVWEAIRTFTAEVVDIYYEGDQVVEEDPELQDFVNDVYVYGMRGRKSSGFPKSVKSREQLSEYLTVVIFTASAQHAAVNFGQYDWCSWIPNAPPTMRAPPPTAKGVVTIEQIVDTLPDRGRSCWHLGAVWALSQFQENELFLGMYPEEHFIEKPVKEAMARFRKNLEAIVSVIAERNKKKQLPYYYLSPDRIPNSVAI
Description: Eicosanoid production from human whole blood (HWB/LTB4: ionophore induced LTB4). On the set-up: from tissue; host or cells: pooled human whole blood. Type of series: cell-based. The method, then: Human whole blood was collected from healthy or asthmatic human donors in 10 ml heparinized tubes (Vacutainer tubes; Becton Dickenson, Franklin Lakes, N.J.). Collected blood was pooled and 80 μl was dispensed into each well of 384 well polypropylene plates using a Multi-Drop™ 384-well dispenser (Titertek, Huntsville, Ala.). Varying concentrations of compounds were dissolved in DMSO then 2 μl/well was added to the blood using a PlateMate Plus™ automated pipetting station (Matrix Technologies, Hudson, N.H.). The compounds were preincubated with the blood at room temperature for 10 minutes followed by stimulation with 40 μl calcium ionophore (A23187, Sigma Chemical Co, St. Louis, Mo., Cat. # C-7522) and 30 μl arachidonic acid (S-1133, NU-Chek PREP, Inc., Elysian, MN, Cat. # S-1133) dissolved in 60% ethanol. After 15 min incubation at 37° C. in a shallow water bath, the blood was centrifuged at 800 g for 10 minutes at 4° C., the supernatants collected, and leukotriene and prostaglandin levels measured by ELISA according to the manufacturer's directions (Cayman Chemical Company, Ann Arbor, Mich.). The assay was performed at a final concentration of 2.5% DMSO. Results of this assay are shown as follows:
HWB/LTB4: Ionophore Induced LTB4 from Human Whole Blood

For series [4], the target named is T2, 5-LO (Rattus norvegicus, UniProt P12527).
T2 construct: from tissue; host or cells: rat air pouch (Lewis rat, in vivo)
T2 sequence (P12527 1-673): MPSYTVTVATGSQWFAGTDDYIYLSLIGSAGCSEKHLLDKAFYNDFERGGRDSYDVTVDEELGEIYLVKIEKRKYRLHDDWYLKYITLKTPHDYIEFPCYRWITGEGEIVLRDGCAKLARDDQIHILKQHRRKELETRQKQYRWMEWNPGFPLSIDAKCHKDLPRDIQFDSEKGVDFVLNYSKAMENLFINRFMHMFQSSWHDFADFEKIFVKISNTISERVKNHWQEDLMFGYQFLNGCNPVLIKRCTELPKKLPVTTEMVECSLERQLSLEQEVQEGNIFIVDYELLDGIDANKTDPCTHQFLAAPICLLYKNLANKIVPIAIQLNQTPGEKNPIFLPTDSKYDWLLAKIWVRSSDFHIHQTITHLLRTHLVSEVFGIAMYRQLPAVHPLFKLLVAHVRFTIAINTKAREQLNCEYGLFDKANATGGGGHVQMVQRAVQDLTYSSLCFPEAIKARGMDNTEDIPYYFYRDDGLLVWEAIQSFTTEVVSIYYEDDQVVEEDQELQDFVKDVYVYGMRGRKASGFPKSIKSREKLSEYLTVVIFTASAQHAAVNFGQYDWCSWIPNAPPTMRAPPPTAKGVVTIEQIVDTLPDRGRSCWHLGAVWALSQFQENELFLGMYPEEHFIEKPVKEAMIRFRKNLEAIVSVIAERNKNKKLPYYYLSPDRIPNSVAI
Kind of series: Carrageenan-induced eicosanoid production in the rat air pouch. Type of series: in vivo. Conditions: leukotriene levels in rat air pouch fluid, lower % = higher activity. How it is done:
For a correct interpretation of the results, it is noted that the lower the % of control, the higher the activity of a test compound. Male Lewis rats (175-200 g), Charles River Laboratories, Wilmington, Mass.) were used in the study. Air pouches were produced by subcutaneous injection of 20 ml of sterile air into the intrascapular area of the back. Pouches were allowed to develop for 1 day. Animals (6 per group) were fasted with free access to water for 16 to 24 hours prior to drug administration. Drugs or vehicle were administered by gavage 1 hour prior to injection of 2 ml of a 1% suspension of carrageenan (FMC BioPolymer, Philadelphia, Pa., Cat. # GP209-NF) dissolved in saline into the pouch. At 3 hours post-carrageenan injection, 1 ml of 50 μg/ml calcium ionophore in saline (A23187, Sigma Chemical Co, St. Louis, M, Cat. #C-7522) was injected into the pouch and the pouch fluid collected 10 minutes later by lavage. The fluid was centrifuged at 3500 rpm for 10 minutes at 4° C., and the supernatants were collected for analysis. Leukotriene levels were quantitated by ELISA according to the manufacturer's directions (Cayman Chemical Company, Ann Arbor, Mich.).

Series [5] addresses T1, 5-LO. Kind of series: Fluorescence Intensity 5-LO Enzyme Assay. The series is classed as biochemical. Conditions: recombinant human 5-LO crude lysate, H2DCFDA oxidation, 3 μM arachidonic acid. How it is done: The enzyme assay is based on the oxidation of the non-fluorescent compound 2′,7′-dichlorodihydrofluorescein diacetate (H2DCFDA) to the fluorescent 2′,7′ dichlorofluorescein by 5-LO in an arachidonic acid-dependent reaction. Ester cleavage of the acetate groups of the substrate H2DCFDA must occur prior to oxidation. This is achieved through use of a crude cell lysate preparation of recombinant human 5-LO. The enzyme assay ([…]) contained 50 mM Tris (pH 7.5), 2 mM CaCl2, 2 mM EDTA, 3 μM arachidonic acid (Nu-Chek Prep; #S-1133), 10 μM ATP, 10 μM H2DCFDA (Invitrogen; #D399), inhibitor (varying concentration) and recombinant human 5-LO enzyme (1.25 μL crude lysate per well).
Inhibitors (dissolved in DMSO) were plated into a 384-well assay plate (Corning #3654) at 1 μL followed by a 20 μL addition of a solution containing 5-LO enzyme and H2DCFDA. Enzyme and H2DCFDA were pre-incubated for 5 minutes to allow time for acetate group cleavage of the dye prior to addition to the assay plate. After a 10 minute preincubation of inhibitor and enzyme/dye mix, the assay was initiated by the addition of a substrate solution containing arachidonic acid and ATP. The enzymatic reaction was run for 20 min at room temperature and terminated by the addition of 40 μL of acetonitrile. Assay plates were read in a plate reader using standard wavelengths for fluorescein. […]

A further series concerns 5-lipoxygenase enzyme. Description: Systemic inhibition of the 5-lipoxygenase enzyme in dogs (emesis study). Conditions: 5 mg/kg IV. The series is classed as in vivo, beagle dogs. How it is done: Experiments were undertaken to differentiate local gastrointestinal emetic stimuli during dissolution and absorption of an oral compound from emetic stimuli produced during systemic exposure through the bloodstream. […] These findings were observed after 8-12 kg purpose-bred beagle dogs were administered 4-(3-{[4-(1-methyl-1H-pyrazol-5-yl)phenyl]thio}phenyl)tetrahydro-2H-pyran-4-carboxamide by IV infusion, using a loading dose followed by a slow infusion to attain a peak blood level over 30 minutes to 1 hour in duration. More specifically, compounds were diluted in phosphate buffered saline to a concentration where 10 ml/kg total volume was administered through an intravenous catheter using an infusion pump, with approximately 90% of the total dose being delivered in the first 5 minutes, and the remaining dose administered over the next 25 minutes. Similar delivery methods to produce an exposure that approximates the systemic pharmacokinetic profile seen with oral delivery are anticipated to give similar results. More rapid methods of administration and the resultant high plasma concentrations are not anticipated to discriminate useful compounds from non-useful compounds. […]

Consider `Cc1nccn1-c1ccc(Sc2cccc(C3(C(N)=O)CCOCC3)c2)cc1` [4-(3-(4-(2-methyl-1H-imidazol-1-yl)phenylthio)phenyl)-tetrahydro-2H-pyran-4-carboxamide, reference compound], for which the emesis entry in series [1] (intravenously at 10, 30 and 60 mg/kg and 30 mg per kg oral) is “Emesis was observed in all dogs”. Further, in series [2], the nausea or emesis was 30 % of human subjects.

Broadly, the IC50 is the concentration that inhibits the measured activity by half. What is called IC80 is the concentration at which the effect reaches the 80% level. High values mean weaker potency, low ones greater potency. In general, IC90 refers to the concentration needed for an effect of 90%. High values mean weaker potency, low ones greater potency. As to `Cn1nccc1-c1ccc(Sc2cccc(C3(C(N)=O)CCOCC3)c2)cc1F` [(Ia), 4-(3-{[3-fluoro-4-(1-methyl-1H-pyrazol-5-yl)phenyl]thio}phenyl)tetrahydro-2H-pyran-4-carboxamide], the IC50 against 5-LO [3] turned out to be 0.152 µM; at 5-LO [5], 0.204 µM. In addition, it took 0.357 µM to reach the 80% level on 5-LO [3] (IC80). This compound also showed an IC90 on 5-LO [3] of 1.31 µM. Besides, the figures for the “% of Control” value on 5-LO [4] (dose 1 mg/kg by gavage), on 5-LO [4] (dose 3 mg/kg by gavage) and on 5-LO [4] (dose 10 mg/kg by gavage) were 25.74 % of Control, 0 % of Control and 0 % of Control, respectively.

In the case of `Cn1nccc1-c1ccc(Sc2cccc(C3(C(N)=O)CCOCC3)c2)cc1` [(Ib), 4-(3-{[4-(1-methyl-1H-pyrazol-5-yl)phenyl]thio}phenyl)tetrahydro-2H-pyran-4-carboxamide], in series [1] (beagle dogs, IV infusion (loading dose followed by slow infusion)), the nausea and emesis entry was “produce nausea and emesis through systemic exposure”. The emesis entry in series [1] (5 mg/kg IV) is “no observed emesis”; in series [1] (another experiment, oral 600 mg per kg), “No emesis was observed”; in series [1] (oral route, doses of 10 and 100 mg per kg), “emesis in only one dog at 100 mg per kg”. The “emesis (number of dogs)” value is on record as 2 dogs in series [1] (another experiment, oral 100 mg per kg) and “one dog” in series [1] (another experiment, oral 300 mg per kg). The IC50 against 5-LO [3] turned out to be 0.135 µM; on 5-LO [5], 0.229 µM. This compound also had an IC80 on 5-LO [3] of 0.397 µM. This compound also yielded an IC90 against 5-LO [3] of 0.716 µM. Further, the “% of Control” value on 5-LO [4] (dose 1 mg/kg by gavage) was 20.24 % of Control; on 5-LO [4] (dose 3 mg/kg by gavage, 3 mg/kg), 5.23 % of Control; on 5-LO [4] (dose 3 mg/kg by gavage, listed as 4-(3-{[4-(1-methyl-1H-pyrazol-5-yl)phenyl]thio}phenyl)tetrahydro-2H-pyran-4-carb, 3 mg/kg), 20 % of Control; at 5-LO [4] (dose 10 mg/kg by gavage) it was 2.30 % of Control. The “inhibition of the 5-LO enzyme” value in the series with 5-lipoxygenase enzyme is recorded as 100%.
